# Counter-ions that a name gives are not always drawn.
# Target: T1, epithelial sodium channel (ENaC) (Homo sapiens, UniProt P37088+P51168+P51170)
# T1 construct: host or cells: primary Human Bronchial Epithelial cells (HBECs), air-liquid interface culture
# T1 sequence (P37088 1-669): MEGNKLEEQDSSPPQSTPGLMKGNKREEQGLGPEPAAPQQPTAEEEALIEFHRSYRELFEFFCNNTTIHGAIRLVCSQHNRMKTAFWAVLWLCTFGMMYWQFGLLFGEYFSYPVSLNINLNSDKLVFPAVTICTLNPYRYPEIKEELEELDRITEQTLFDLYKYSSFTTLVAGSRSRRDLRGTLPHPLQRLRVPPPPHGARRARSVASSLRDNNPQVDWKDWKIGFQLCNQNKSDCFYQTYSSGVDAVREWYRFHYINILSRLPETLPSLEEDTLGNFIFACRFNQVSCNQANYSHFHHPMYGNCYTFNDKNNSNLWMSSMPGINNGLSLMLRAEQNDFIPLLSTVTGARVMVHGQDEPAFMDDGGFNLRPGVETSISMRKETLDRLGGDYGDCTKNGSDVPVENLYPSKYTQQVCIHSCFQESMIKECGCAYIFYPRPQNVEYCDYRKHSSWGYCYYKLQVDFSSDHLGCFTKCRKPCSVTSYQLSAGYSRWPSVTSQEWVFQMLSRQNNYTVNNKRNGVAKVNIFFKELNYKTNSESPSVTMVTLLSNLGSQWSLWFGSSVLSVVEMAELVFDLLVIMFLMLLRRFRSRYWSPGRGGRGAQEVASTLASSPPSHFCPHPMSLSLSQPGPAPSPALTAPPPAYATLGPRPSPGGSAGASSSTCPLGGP
# T1 sequence (P51168 1-640): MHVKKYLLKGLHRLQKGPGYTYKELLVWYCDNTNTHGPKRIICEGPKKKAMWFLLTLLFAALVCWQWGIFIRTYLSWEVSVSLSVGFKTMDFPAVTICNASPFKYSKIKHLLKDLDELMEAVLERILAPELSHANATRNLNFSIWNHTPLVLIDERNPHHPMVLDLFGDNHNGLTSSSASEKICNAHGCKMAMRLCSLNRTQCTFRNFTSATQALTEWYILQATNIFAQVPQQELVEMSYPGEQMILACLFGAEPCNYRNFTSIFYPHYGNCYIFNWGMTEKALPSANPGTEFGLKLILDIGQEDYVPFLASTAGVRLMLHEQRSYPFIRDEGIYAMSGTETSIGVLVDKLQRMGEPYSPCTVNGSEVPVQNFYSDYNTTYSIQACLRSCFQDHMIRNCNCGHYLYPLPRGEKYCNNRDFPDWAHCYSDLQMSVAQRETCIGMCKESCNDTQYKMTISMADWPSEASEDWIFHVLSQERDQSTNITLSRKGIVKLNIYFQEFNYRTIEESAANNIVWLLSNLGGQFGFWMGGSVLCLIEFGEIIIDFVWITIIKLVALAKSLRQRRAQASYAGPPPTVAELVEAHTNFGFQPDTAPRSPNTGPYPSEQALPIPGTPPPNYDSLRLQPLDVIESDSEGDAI
# T1 sequence (P51170 1-649): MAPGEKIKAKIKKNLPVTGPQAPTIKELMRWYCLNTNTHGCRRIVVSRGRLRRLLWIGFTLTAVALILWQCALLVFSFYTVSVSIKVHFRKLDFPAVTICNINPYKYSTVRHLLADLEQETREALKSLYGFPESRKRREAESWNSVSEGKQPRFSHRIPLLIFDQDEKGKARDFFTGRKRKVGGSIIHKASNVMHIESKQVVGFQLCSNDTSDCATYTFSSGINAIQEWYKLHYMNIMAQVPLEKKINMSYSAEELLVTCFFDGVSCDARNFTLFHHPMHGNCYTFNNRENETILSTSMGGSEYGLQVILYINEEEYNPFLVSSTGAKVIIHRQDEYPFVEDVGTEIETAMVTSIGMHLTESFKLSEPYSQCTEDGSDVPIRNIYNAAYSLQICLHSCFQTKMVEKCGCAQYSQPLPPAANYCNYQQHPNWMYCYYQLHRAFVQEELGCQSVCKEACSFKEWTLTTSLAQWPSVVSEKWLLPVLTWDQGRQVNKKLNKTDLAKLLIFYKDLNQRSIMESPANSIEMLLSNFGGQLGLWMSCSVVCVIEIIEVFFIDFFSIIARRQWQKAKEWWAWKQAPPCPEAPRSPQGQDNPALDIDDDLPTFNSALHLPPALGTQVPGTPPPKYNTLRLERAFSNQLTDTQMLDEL
# Assay: Short circuit current (ISC) measurements in Human Bronchial Epithelial cells, inhibition of amiloride-sensitive ISC
# Type: cell-based
# Conditions: inhibition of the amiloride-sensitive ISC; Human Bronchial Epithelial cells (HBECs) at air-liquid interface; compound added to apical chamber; read-out: IC50
# Method: Compounds of formula (I) and their pharmaceutically acceptable salts, hereinafter referred to alternatively as “agents of the invention”, are useful as pharmaceuticals. In particular, the compounds have good ENaC blocker activity and may be tested in the following assays.
# Human Bronchial Epithelial cells (HBECs) (Cambrex) were cultured under air-liquid interface conditions to provide a well differentiated mucociliary phenotype.
# HBECs were cultured using a modification of the method described by Gray and colleagues (Gray et al., 1996). Cells were seeded in plastic T-162 flasks and were grown in bronchial epithelial cell growth medium (BEGM; Cambrex) supplemented with bovine pituitary extract (52 μg/mL), hydrocortisone (0.5 μg/mL), human recombinant epidermal growth factor (0.5 ng/mL), epinephrine (0.5 μg/mL), transferrin (10 μg/mL), insulin (5 μg/mL), retinoic acid (0.1 μg/mL), triiodothyronine ([…]), gentamycin (50 μg/mL) and amphotericin B (50 ng/mL). Medium was changed every 48 hours until cells were 90% confluent. Cells were then passaged and seeded (8.25×10^5 cells/insert) on polycarbonate Snapwell inserts (Costar) in differentiation media containing 50% DMEM in BEGM with the same supplements as above but without triiodothyronine and a final retinoic acid concentration of 50 nM (all-trans retinoic acid). Cells were maintained submerged for the first 7 days in culture, after which time they were exposed to an apical air interface for the remainder of the culture period. At this time, media was changed to DMEM:F12 media containing 2% v/v Ultroser G for the remainder of culture. Amphotericin B was removed from all media 3 feeds prior to use in the Using Chambers. Cells were used between days 7 and 21 after establishment of the apical-air interface. At all stages of culture, cells were maintained at 37° C. in 5% CO2 in an air incubator.
# Short Circuit Current (ISC) Measurements
# Snapwell inserts were mounted in Vertical Diffusion Chambers (Costar) and were bathed with continuously gassed Ringer solution (5% CO2 in O2; pH 7.4) maintained at 37° C. containing (in mM): 120 NaCl, 25 NaHCO3, 3.3 KH2PO4, 0.8 K2HPO4, 1.2 CaCl2, 1.2 MgCl2, and 10 glucose. The solution osmolarity was between 280 and 300 mOsmol/kg H2O for all physiological salt solutions used. Cells were voltage clamped to 0 mV (model EVC4000; WPI). RT was measured by applying a 1- or 2-mV pulse at 30-s intervals and calculating RT by Ohm's law. Data were recorded using a PowerLab workstation (ADInstruments).
# Test compounds were prepared as a 10 mM stock solution in DMSO (95%). Serial 3-fold dilutions were freshly prepared in an appropriate vehicle (distilled H2O or Ringers solution). The initial concentration was added to the apical chamber as a 1000× concentrate in 5 μL, resulting in a final 1× concentration the 5 mL volume of the Ussing chamber. Subsequent additions of compound were added in a 3.3 μL volume of the 1000× serially diluted stock solution. At the completion of the concentration-response experiment, amiloride (10 μM) was added into the apical chamber to enable the total amiloride-sensitive current to be measured. An amiloride control IC50 was established at the start of each experiment.
# Results are expressed as the mean % inhibition of the amiloride-sensitive ISC. Concentration-response curves were plotted and IC50 values generated using GraphPad Prism 3.02. Cell inserts were typically run in duplicate and the IC50 calculated on the mean % inhibition data.
row,IC50 [nM],SMILES
1,62,"CC(=O)N[C@@H](Cc1ccc(OC(C)C)cc1)C(=O)N1CCC2(CC1)CN/C(=N\C(=O)c1nc(Cl)c(N)nc1N)N2 [Example 185, 3,5-Diamino-6-chloro-pyrazine-2-carboxylic acid [8-[(S)-2-acetylamino-3-(4-isopropoxy-phenyl)-propionyl]-1,3,8-triaza-spiro[4.5]dec-(2E)-ylidene]-amide]"
2,36,"Nc1nc(N)c(C(=O)/N=C2\NCC3(CCN(C(=O)NCc4ccccc4)CC3)N2)nc1Cl [Example 215, 2-[(E)-3,5-Diamino-6-chloro-pyrazine-2-carbonylimino]-1,3,8-triaza-spiro[4.5]decane-8-carboxylic acid benzylamide]"
3,8.5,"Nc1nc(N)c(C(=O)/N=C2\NCC3(CCN(C(=O)NCCc4cccc(OCc5ccccc5)c4)CC3)N2)nc1Cl [Example 220, 2-[(E)-3,5-Diamino-6-chloro-pyrazine-2-carbonylimino]-1,3,8-triaza-spiro[4.5]decane-8-carboxylic acid [2-(3-benzyloxy-phenyl)-ethyl]-amide]"
4,93.5,"Nc1nc(N)c(C(=O)/N=C2\NCC3(CCN(C(=O)NCCCc4ccccn4)CC3)N2)nc1Cl [Example 228, 2-[(E)-3,5-Diamino-6-chloro-pyrazine-2-carbonylimino]-1,3,8-triaza-spiro[4.5]decane-8-carboxylic acid (3-pyridin-2-yl-propyl)-amide]"
5,54,"Nc1nc(N)c(C(=O)/N=C2\NCC3(CCN(S(=O)(=O)Cc4ccccc4)CC3)N2)nc1Cl [Example 232, 3,5-Diamino-6-chloro-pyrazine-2-carboxylic acid [8-phenylmethanesulfonyl-1,3,8-triaza-spiro[4.5]dec-(2E)-ylidene]-amide]"
6,364,"Cn1ccc2cc(S(=O)(=O)N3CCC4(CC3)CN/C(=N\C(=O)c3nc(Cl)c(N)nc3N)N4)ccc21 [Example 235, 3,5-Diamino-6-chloro-pyrazine-2-carboxylic acid [8-(1-methyl-1H-indole-5-sulfonyl)-1,3,8-triaza-spiro[4.5]dec-(2E)-ylidene]-amide]"
7,119,"Cc1oc(-c2ccccc2)nc1COc1ccc(S(=O)(=O)N2CCC3(CC2)CN/C(=N\C(=O)c2nc(Cl)c(N)nc2N)N3)cc1 [Example 238, 3,5-Diamino-6-chloro-pyrazine-2-carboxylic acid [8-[4-(5-methyl-2-phenyl-oxazol-4-ylmethoxy)-benzenesulfonyl]-1,3,8-triaza-spiro[4.5]dec-(2E)-ylidene]-amide]"

# More lines, now with the values behind:
row,SMILES,IC50 [nM]
1,"Nc1nc(N)c(C(=O)/N=C2\NCC3(CCN(C(=O)c4cocn4)CC3)N2)nc1Cl [Example 118, 3,5-Diamino-6-chloro-pyrazine-2-carboxylic acid [8-(oxazole-4-carbonyl)-1,3,8-triaza-spiro[4.5]dec-(2E)-ylidene]-amide]",175
2,"CC(C)COC1CCN(S(=O)(=O)c2cccc(C(=O)N3CCC4(CC3)CN/C(=N\C(=O)c3nc(Cl)c(N)nc3N)N4)c2)CC1 [Example 126, 3,5-Diamino-6-chloro-pyrazine-2-carboxylic acid [8-[3-(4-isobutoxy-piperidine-1-sulfonyl)-benzoyl]-1,3,8-triaza-spiro[4.5]dec-(2E)-ylidene]-amide]",25
3,"CCOC(=O)C1CCCN(S(=O)(=O)c2cccc(C(=O)N3CCC4(CC3)CN/C(=N\C(=O)c3nc(Cl)c(N)nc3N)N4)c2)C1 (stereo not shown) [Example 128, 1-(3-{2-[(E)-3,5-Diamino-6-chloro-pyrazine-2-carbonylimino]-1,3,8-triaza-spiro[4.5]decane-8-carbonyl}-benzenesulfonyl)-piperidine-3-carboxylic acid ethyl ester]",11.5
4,"Nc1nc(N)c(C(=O)/N=C2\NCC3(CCN(C(=O)c4cccc(S(=O)(=O)N5CCC(S(=O)(=O)c6ccccc6)C5)c4)CC3)N2)nc1Cl (stereo not shown) [Example 141, 3,5-Diamino-6-chloro-pyrazine-2-carboxylic acid [8-[3-(3-benzenesulfonyl-pyrrolidine-1-sulfonyl)-benzoyl]-1,3,8-triaza-spiro[4.5]dec-(2E)-ylidene]-amide]",2
5,"Nc1nc(N)c(C(=O)/N=C2\NCC3(CCN(C(=O)CCc4nc(-c5ccc(Cl)cc5)no4)CC3)N2)nc1Cl [Example 146, 3,5-Diamino-6-chloro-pyrazine-2-carboxylic acid [8-{3-[3-(4-chlorophenyl)-[1,2,4]oxadiazol-5-yl]-propionyl}-1,3,8-triaza-spiro[4.5]dec-(2E)-ylidene-amide trifluoroacetate]",6
6,"Cc1ccc(S(=O)(=O)n2ccc(C(=O)N3CCC4(CC3)CN/C(=N\C(=O)c3nc(Cl)c(N)nc3N)N4)c2)cc1 [Example 147, 3,5-Diamino-6-chloro-pyrazine-2-carboxylic acid [8-[1-(toluene-4-sulfonyl)-1H-pyrrole-3-carbonyl]-1,3,8-triaza-spiro[4.5]dec-(2E)-ylidene]-amide]",16

# Source: US8697687B2, “Treating diseases mediated by blockade of the epithelial sodium channel with pyrazine-2-carboxamide derivatives” (Novartis AG, priority 2007, dated 2014)
